Patent US8389544B2, “Isoquinolone compounds as subtype-selective agonists for melatonin receptors MT1 and MT2” (The Hong Kong University of Science and Technology, priority 2007, dated 2013)

Legend:
MT1/293 = test: MTT cytotoxicity assay, MT1/293 cells; assay type: cell-based; details: percentage of untreated control cells
Procedure: (§1) This assay evaluates the cytotoxic effects of the novel isoquinolone compounds based on the cellular viability under chronic treatments. Viable cells but not dead cells can turn the substrate into a colored product, which yields higher absorbance. […] A low percentage indicates low cytoviability (or high cytotoxicity).
(§2) 5. Cytotoxicity Test Using MTT Assay
(§3) Cells were seeded into clear 96-well plate at an appropriate density in 100 μl growth medium and were allowed to grow overnight. The novel isoquinolone compounds were diluted to desired concentrations using fresh growth medium, and these dilutions were used to replace the growth media in each well. After incubating for 24-96 h, 10 μl of the MTT labeling reagent (Roche) was added to each well and the cells were incubated in a CO2 incubator for 4 h. 100 μl solubilization buffer was then added into each well and incubated overnight for complete solubilization of the purple formazan crystals. […] Each condition was performed in triplicate in every experiment and the results were expressed as % of blank control±SD.

MT2/293 = test: MTT cytotoxicity assay, MT2/293 cells; assay type: cell-based; details: percentage of untreated control cells
Procedure: as §1, §2, §3

MT1 receptor = MT1 receptor (Homo sapiens, UniProt P48039); test: Competitive [3H]melatonin binding assay, MT1; design: expressed in transfected cells; details: displacement of 1 nM [3H]melatonin, HEK-293 cells; log value, negative; NSB = No significant binding
Procedure: Competitive ligand binding assays were performed to examine the receptor binding characteristics of the novel isoquinolone compounds. The assay measures the ability of the novel isoquinolone compounds to bind and displace the radiolabelled endogenous ligand, [^3H]melatonin. Increasing concentrations of the novel compounds are added to displace the [^3H]melatonin-bound to MT1 or MT2 receptor-expressing cells.
4. Competitive Binding Assay
The ability of compounds to bind to MT1 and/or MT2 receptors is determined using radioligand binding assays. […] 48 hours following transfection, cells are harvested in binding buffer (50 mM Tris-HCl, 2 mM MgCl2, 1 mM EDTA, pH 7.4). 100,000 cells are incubated with 1 nM [^3H] melatonin (specific activity: 83 Ci/mmol; GE Healthcare) and appropriate concentrations (0.1 nM to 1 μM) of unlabelled ligands in a total volume of 100 μl in 96-well plates (PerkinElmer Life And Analytical Sciences, Inc., Boston, Mass.) for 2 hours at room temperature. Reactions are terminated by rapid filtration through a 96-well cell harvester onto 96-well GF/C filter mats. Filters are washed with 500 μl of ice-cold binding buffer, dried and sealed in a polyethylene bag with 3.5 ml of scintillation fluid and counted for tritium in a Microbeta Jet scintillation counter. […] Data are analyzed by nonlinear least-squares regression using GraphPad Prism 3.02.

MT2 receptor [1] = biological target: T1, MT2 receptor (Homo sapiens, UniProt P49286); test: ERK phosphorylation assay, MT2; assay type: cell-based; design: expressed in transfected cells; details: HEK293 cells; isoquinolone 1 μM or 2-iodomelatonin 100 nM, 5 min; against unstimulated control cells
T1 sequence (P49286 1-362): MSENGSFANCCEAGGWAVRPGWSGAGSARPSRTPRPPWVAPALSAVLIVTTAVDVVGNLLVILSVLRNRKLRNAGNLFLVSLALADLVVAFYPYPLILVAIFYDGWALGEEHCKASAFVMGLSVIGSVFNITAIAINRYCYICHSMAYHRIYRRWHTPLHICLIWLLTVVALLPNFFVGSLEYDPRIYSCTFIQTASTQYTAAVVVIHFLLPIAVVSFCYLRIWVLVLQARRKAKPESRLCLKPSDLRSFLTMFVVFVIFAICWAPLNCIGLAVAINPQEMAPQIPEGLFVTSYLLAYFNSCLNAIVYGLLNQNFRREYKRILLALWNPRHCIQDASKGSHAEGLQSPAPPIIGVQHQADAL
Source text: 3. ERK Phosphorylation Assay This assay indicates the ability of the novel compounds to activate MT1 or MT2 receptors by measuring downstream events of the activated receptor, in this case ERK phosphorylation. The amount of phosphorylated ERK1/2 was detected and quantified in western blots. The data in Table 2 is expressed as the fold stimulation against the unstimulated control cells. 6. Detection of ERK phosphorylation […] Stimulation was terminated by aspiration on ice and immediate lysis by 200 μl of 1× protein gel loading buffer. Lysates were denatured by boiling for 5 min and cooled at room temperature until loading. 30 μl of each lysate was separated on 12% SDS-PAGE and transferred to nitrocellulose membrane by electroblotting. Success of transfer was visualized by Ponceau S staining. All subsequent incubations were under gentle agitation (˜100 strokes/min). […] Primary antisera against phosphorylated- or total-ERK1/2 were incubated with the blocked membrane at an appropriate dilution (1:4000-1:2000) in Blotto for overnight at 4° C. The membrane was washed with fresh Blotto for 3 times of 15 min each, then incubated with secondary antiserum (horseradish peroxidase-conjugated anti-rabbit IgG) at the dilution of 1:1000 in 1×TBS for 1 h at room temperature. The membrane was quickly rinsed with excessive 1×TBS for 3 times, and followed by 4 washes of 1×TBS for 10 min. By the end, a premix of luminol-based chemiluminescence substrate solution was prepared (1 ml for every 8 cm^2 of membrane) and overlaid onto the washed membrane to incubate for 1 min. After removing excessive solution, the membrane was covered with saran wrap and an autograph with appropriate exposure was developed on X-ray film in dark room. The image was scanned and the band intensities quantified using ImageJ 1.34. Data was expressed as the percentage response of the vehicle-treated or untreated samples. Experiments were performed at least 3 times and the average responses±SEM were presented.

MT2 receptor [2] = biological target: T1, MT2 receptor; test: cAMP assay, MT2; assay type: cell-based; design: expressed in transfected cells; host or cells: COS-7 (monkey kidney fibroblast); details: inhibition of forskolin-stimulated cAMP production; MT2-expressing cells

Chain of MT1 receptor (P48039 whole entry): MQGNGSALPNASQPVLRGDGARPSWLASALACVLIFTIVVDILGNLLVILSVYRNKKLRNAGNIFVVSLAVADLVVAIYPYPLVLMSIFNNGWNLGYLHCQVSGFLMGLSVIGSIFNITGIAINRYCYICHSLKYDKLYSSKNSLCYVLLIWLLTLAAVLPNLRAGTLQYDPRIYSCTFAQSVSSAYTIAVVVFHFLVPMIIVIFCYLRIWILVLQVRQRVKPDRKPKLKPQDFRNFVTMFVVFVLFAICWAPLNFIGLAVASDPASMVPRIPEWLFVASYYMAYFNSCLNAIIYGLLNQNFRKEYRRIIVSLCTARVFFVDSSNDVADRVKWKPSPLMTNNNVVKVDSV

Structure (SMILES)	MTT Assay MT1/293 % Viability ± SEM (MT1/293) [%]	MTT Assay MT2/293 % Viability ± SEM (MT2/293) [%]	Binding Assay MT1 logIC50 ± SEM (MT1 receptor)	ERK Phosphorylation MT2 Fold Stim. (MT2 receptor [1]) [Fold]	cAMP Assay MT2 % Inh (MT2 receptor [2]) [%]
Cn1ccc2cc(OC(=O)c3ccccc3)c(OC(=O)c3ccccc3)cc2c1=O [IS039]	108.5 ± 3.2	117.6 ± 9.0	NSB	1.98	4.2 ± 6.8
COc1cc(COc2cc3ccn(C)c(=O)c3cc2OC)cc(OC)c1 [IS042]	71.6 ± 4.7	56.3 ± 1.5	NSB	5.59	58.7 ± 5.8
COc1cccc(COc2cc3ccn(C)c(=O)c3cc2OC)c1 [IS044]	112.6 ± 5.8	112.5 ± 3.8	NSB	3.50	62.5 ± 4.0
COc1cccc(COc2cc3c(=O)n(C)ccc3cc2OC)c1 [IS521]	89.8 ± 8.3	90.5 ± 11.7	NSB	3.01	63.2 ± 4.9
COc1cc(COc2cc3c(=O)n(C)ccc3cc2OC)cc(OC)c1 [IS523]	51.6 ± 1.1	46.2 ± 3.7	NSB	2.07	50.8 ± 9.1
COc1cc2ccn(C)c(=O)c2cc1OCc1ccc(C(C)(C)C)cc1 [IS526]	25.0 ± 4.4	24.7 ± 1.6	NSB		−63.9 ± 59.2
COc1cccc(COc2c(OC)ccc3c(=O)n(C)ccc23)c1 [IS527]	57.1 ± 3.0	46.8 ± 0.2	NSB	2.21	51.4 ± 12.1
COc1cc(COc2c(OC)ccc3c(=O)n(C)ccc23)cc(OC)c1 [IS528]	50.2 ± 5.7	42.4 ± 1.3	NSB	1.71	49.4 ± 13.2
COc1ccc2c(=O)n(C)ccc2c1OCc1ccc(C)cc1 [IS529]	54.9 ± 2.5	48.5 ± 1.6	NSB	1.23	37.7 ± 11.9
